Source: publication PMC6325233, “A Novel Actin Binding Drug with In Vivo Efficacy” (Antimicrobial Agents and Chemotherapy, 2018)
“Also recorded” adds a separate entry of the source.

How the values were obtained:
[1] = test system: Trichophyton mentagrophytes 10207; assay: MIC susceptibility testing (itraconazole-resistant strain); assay type: cell-based; conditions: CLSI M38-A2; 96 hours
Experimental: (§1) Occidiofungin was purified from a liquid culture of Burkholderia contaminans MS14 as previously described ([21]). MIC susceptibility testing was performed according to the CLSI M27-A3 and M38-A2 standards for the susceptibility testing of yeasts and filamentous fungi, respectively. S. cerevisiae deletion mutants were obtained from the commercially available BY4741 deletion library (Thermo Scientific).

[2] = test system: Candida krusei 28415; assay: MIC susceptibility testing (fluconazole-resistant strain); assay type: cell-based; conditions: CLSI M27-A3
Experimental: as §1

[3] = test system: Schizosaccharomyces pombe; assay: Intracellular localization and competition, fluorescence microscopy; assay type: cell-based; conditions: pretreatment with 1× MIC native occidiofungin
Experimental: S. pombe and S. cerevisiae cells (OD600 of 0.6 to 0.8) were incubated with 1× MIC of alkyne-OF at 30°C, with samples removed at 10, 30, and 60 min postincubation. The cells were washed in PBS and fixed with 3.7% formaldehyde. The cells were permeabilized by adding 0.5% Triton X-100. The cells were washed with PBS before the Click reaction with azide-derivatized Alexa Fluor 488 (Click-iT EdU imaging kit; Thermo Fisher Scientific). The cells were visualized with an Olympus FV1000 confocal microscope. A competition assay was carried out by pretreating cells with 1× MIC of the native occidiofungin followed by treatment with alkyne-OF. […] A 6.6 µM concentration of tetramethyl rhodamine isothiocyanate (TRITC)-tagged phalloidin was added to formaldehyde-fixed cells (permeabilized with 0.2% Triton X-100) for 30 min at room temperature. The cells were washed in PBS, added to a concanavalin A-treated glass slides, and overlaid with Vectashield plus DAPI. Images were viewed using a Nikon 50i fluorescence microscope with a 100× oil immersion objective and Texas Red and DAPI filter sets. Random images were captured using a Retiga EXi black and white charge-coupled-device (CCD) camera and Image Q software. All images were captured using the same exposure settings, with the image contrast altered postcapture using CorelDraw.

[4] = test system: Aspergillus fumigatus 28436; assay: MIC susceptibility testing; assay type: cell-based; conditions: CLSI M38-A2
Experimental: as §1

[5] = test system: Fusarium solani 18749; assay: MIC susceptibility testing; assay type: cell-based; conditions: CLSI M38-A2
Experimental: as §1

[6] = test system: Candida albicans 28200; assay: MIC susceptibility testing; assay type: cell-based; conditions: CLSI M27-A3
Experimental: as §1

[7] = test system: Candida krusei 28570; assay: MIC susceptibility testing; assay type: cell-based; conditions: CLSI M27-A3
Experimental: as §1

[8] = test system: Candida auris MRL# 35651; assay: MIC susceptibility testing; assay type: cell-based; conditions: CLSI M27-A3; 24 hours
Experimental: as §1

[9] = test system: Candida parapsilosis 28364; assay: MIC susceptibility testing; assay type: cell-based; conditions: CLSI M27-A3
Experimental: as §1

[10] = test system: Trichophyton rubrum 28658; assay: MIC susceptibility testing; assay type: cell-based; conditions: CLSI M38-A2; 96 hours
Experimental: as §1

[11] = Murine model of vulvovaginal candidiasis, tolerability; assay type: in vivo, BALB/c mice
Experimental: The murine model of vulvovaginal candidiasis has been reported ([59]). A variation of this method was used. Three groups of six mice were used to evaluate two concentrations of occidiofungin (100 μg and 50 μg) and vehicle control (0.3% Noble agar). Briefly, 6- to 8-week-old BALB/c mice were treated subcutaneously with 200 ng per mouse of β-estradiol 17-valerate 3 days prior to inoculation with C. albicans (day −3). A subcutaneous dose of estradiol was administered every 3 days (day 0 [D0] and D3) until the end of the experiment to induce pseudoestrus. Intravaginal inoculations of approximately 20 μl of 2.5 × 10^6 CFU/ml of C. albicans were performed on D0 of the VVC study. On the same day of inoculation (D0), another subcutaneous injection of estradiol was made. A lyophilized powder of occidiofungin containing either 100 μg or 50 μg of occidiofungin was suspended in 20 μl of warm 0.3% Noble agar before the intravaginal inoculations. Drug treatments were performed on D2, D3, and D4 of the study. On day 5 (D5), the vaginal lumen was lavaged with 100 μl of sterile PBS with a 200-µl pipette tip. Serial dilutions and total CFU per vaginal lavage were determined by plating on YPD plates containing 50 μg/ml of chloramphenicol. Body weights, signs of vaginal irritation such as swelling or bleeding, and clinical signs of discomfort (stereotypical stretching behavior) were monitored. Statistical analyses (t tests) were performed to compare the control group to the treated groups and to compare differences between treated groups. All the analyses were 2 sided, with a P value of <0.05 considered statistically significant.

[12] = test system: cancer cell lines; conditions: several cancer cell lines vs human fibroblast control; cited from earlier work
Experimental: Natural products with in vitro antifungal properties that target the actin cytoskeleton were previously reported ([51]). […] Occidiofungin, on the other hand, is well tolerated at 5 mg/kg or 20 mg/kg when administered intravenously or subcutaneously, respectively ([22], [25]). This dose is much higher than the MIC of occidiofungin against several fungal pathogens. ...

[13] = intravaginal 100 and 50 µg, once per day for 3 days

## occidiofungin
[1]
  MIC, 80% inhibition: 1 µg/mL
  MIC, 100% inhibition: 2 µg/mL
[2]; 24 hours
  MIC, 50% inhibition: 4 µg/mL
  MIC, 100% inhibition: 8 µg/mL
[2]; 48 hours
  MIC, 50% inhibition: 4 µg/mL
  MIC, 100% inhibition: 8 µg/mL
[3]
  competition with alkyne-OF localization: the observed cellular localization patterns disappeared; also recorded: does not bind
[4]; 24 hours
  MIC, 50% inhibition: 2 µg/mL
  MIC, 100% inhibition: 4 µg/mL
[4]; 48 hours
  MIC, 50% inhibition: 2 µg/mL
  MIC, 100% inhibition: 4 µg/mL
[5]; 24 hours
  MIC, 50% inhibition: 2 µg/mL
  MIC, 100% inhibition: 4 µg/mL
[5]; 48 hours
  MIC, 50% inhibition: 2 µg/mL
  MIC, 100% inhibition: 4 µg/mL
[6]; 24 hours
  MIC, 50% inhibition: 4 µg/mL
  MIC, 100% inhibition: 8 µg/mL
[6]; 48 hours
  MIC, 50% inhibition: 4 µg/mL
  MIC, 100% inhibition: 8 µg/mL
[7]; 24 hours
  MIC, 50% inhibition: 4 µg/mL
  MIC, 100% inhibition: 8 µg/mL
[7]; 48 hours
  MIC, 50% inhibition: 4 µg/mL
  MIC, 100% inhibition: 8 µg/mL
[8]
  MIC, 50% inhibition: 0.125 µg/mL
  MIC, 100% inhibition: 0.25 µg/mL
[9]; 24 hours
  MIC, 50% inhibition: 4 µg/mL
  MIC, 100% inhibition: 8 µg/mL
[9]; 48 hours
  MIC, 50% inhibition: 4 µg/mL
  MIC, 100% inhibition: 8 µg/mL
[10]
  MIC, 80% inhibition: 1 µg/mL
  MIC, 100% inhibition: 2 µg/mL
[11]; [13]
  behavioral changes (sluggishness, stretching, reluctance to consume food): No behavioral changes
  vaginal bleeding or swelling: no vaginal bleeding or swelling was observed
[11]; treatment of murine vulvovaginal candidiasis
  signs of toxicity: without any signs of toxicity
[12]
  sensitivity of several cancer cell lines vs human fibroblast cell line: approximately 10 -fold
